Results: patent US9138434B2, “Octahydrothienoquinoline derivative, pharmaceutical composition comprising derivative, and use of these” (KISSEI PHARMACEUTICAL CO., LTD., priority 2011, dated 2015)
Like-named read-outs stand apart in the source and are kept apart here.

Assays:
[1] = biological target: T1, human dopamine D2 receptor (Homo sapiens, UniProt P14416); test: Stimulating activities on human dopamine D2 receptor, [35S]GTPγS binding to hD2R#7 cell membrane homogenates; assay type: biochemical
T1 construct: accorded to it of human dopamine D2 receptor (NM1-000795) registered on NCBI completely; expressed in transfected cells; membrane homogenates
T1 sequence (P14416 whole entry): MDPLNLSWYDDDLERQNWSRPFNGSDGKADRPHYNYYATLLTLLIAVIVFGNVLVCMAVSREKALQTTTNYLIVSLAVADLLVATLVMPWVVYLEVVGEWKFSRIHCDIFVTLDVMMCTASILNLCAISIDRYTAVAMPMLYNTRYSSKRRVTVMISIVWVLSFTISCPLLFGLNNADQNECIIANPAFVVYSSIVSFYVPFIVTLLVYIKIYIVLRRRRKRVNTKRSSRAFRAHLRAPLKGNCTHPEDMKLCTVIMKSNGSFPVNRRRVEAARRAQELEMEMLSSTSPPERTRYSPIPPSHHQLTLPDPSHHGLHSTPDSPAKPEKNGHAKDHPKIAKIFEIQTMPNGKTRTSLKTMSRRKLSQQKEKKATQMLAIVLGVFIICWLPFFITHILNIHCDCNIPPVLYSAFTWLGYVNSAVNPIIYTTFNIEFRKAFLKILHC
Procedure: Identification Test of Stimulating Activities on Human Dopamine D2 Receptor
4) Preparation of Membrane Homogenates from hD2R#7 Cells
(2) Preparation of Membrane Homogenates from hD2R#7 Cells
The cells, which were grown to confluence in 150 mm dishes (IWAKI), were harvested with isotonic buffer (50 mM Tris (Sigma), 2 mM ethylenediamine-tetraacetic acid (Invitrogen), and 125 mM sodium chloride (Wako Pure Chemicals), pH 7.4) and centrifuged at 1880×g and 4° C. for 10 minutes, and the cell pellets were then suspended in isotonic buffer. After being subjected to one cycle of freezing and thawing, the cells were centrifuged at 1880×g and 4° C. for 10 minutes, and the cell pellets were suspended in isotonic buffer. The cells were centrifuged at 1880×g and 4° C. for 10 minutes, and the cell pellets were suspended in isotonic buffer and homogenate buffer (10 mM sodium bicarbonate (Nacalai) and 5 mM ethylenediamine-tetraacetic acid, pH 7.5). The volume ratio of isotonic-to-homogenate buffer was 2. The cells were sonicated and centrifuged at 1880×g and 4° C. for 10 minutes, and the supernatants were ultracentrifuged at 80000×g and 4° C. for 30 minutes. The final cell pellets were suspended in homogenate buffer containing protease inhibitor cocktail (Nacalai) and stored at −80° C. until use. The protein concentration was determined using BCA Protein Assay Kit (Pierce) in accordance with the manufacturer's instructions.
5) Determination of Stimulating Activities of Human Dopamine D2 Receptor
The stimulating activities of human dopamine D2 receptor was determined by measuring the binding potential of [^35S]-guanosine 5′-[gamma-thio]triphosphate ([^35S]GTPγS, PerkinElmer) according to the method described by Newman-Tancredi A. et al. (Naunyn-Schmiedeberg's Arch Pharmacol, 1999, vol. 359, pp. 447-453) with a minor modification. Test compounds and dopamine hydrochloride (Fluka) as positive control were dissolved in dimethyl sulfoxide (CARLBIOCHEM), resulting in 30 mM. The both compounds were diluted with assay buffer (50 mM Tris, 100 mM sodium chloride, 5 mM magnesium chloride (Nacalai), 1 mM ethylenediamine-tetraacetic acid, 1 mM dithiothreitol (Wako Pure Chemicals), 10 μM guanosine diphosphate (Wako Pure Chemicals) and 0.5% bovine serum albumin (Sigma), pH 7.4) to a final concentration of 100 pM (only test compounds), 1 nM, 10 nM, 100 nM, 1 μM, 10 μM and 100 μM (only dopamine hydrochloride). The above membrane homogenates and [^35S]GTPγS were diluted with assay buffer to a final concentration of 0.06 mg/mL and 0.6 nM, respectively. The serial diluted compounds (50 μL), the diluted membrane homogenates (50 μL) and the diluted [^35S]GTPγS (50 μL) were mixed on multi-screen 96-well plate (Millipore) and shaken lightly at room temperature for 60 minutes. The reaction was terminated by vacuum filtration with three times washes of ice-cold wash buffer (50 mM Tris, 100 mM sodium chloride, 5 mM magnesium chloride, and 1 mM ethylenediamine-tetraacetic acid, pH 7.4). After drying the bottoms of the plate at 60° C., MicroScinti-40 (PerkinElmer) (30 μL) was added in the plate. The tops of the plate were sealed by TopSeal-A (PerkinElmer), and the radioactivity was determined in a TopCount NXT (registered mark) (PerkinElmer) after shaking lightly for 5-10 minutes. The data was analyzed by nonlinear regression and sigmoidal dose-response curve fitting using GraphPad PRISM 4.0 (GraphPad Software), and values of EC50 (concentration of the compound producing half the maximal effect of the compound) were calculated. The data was presented as mean value (n=2).

[2] = biological target: T2, human serotonin 5-HT2B receptor (Homo sapiens, UniProt P41595); test: Stimulating activities on human serotonin 5-HT2B receptor, intracellular calcium in forced expression HEK293 cells; assay type: cell-based; conditions: intracellular calcium (Fluo-4), HEK293 cells transiently expressing human 5-HT2B receptor; mean, n=2; read-out: EC50
T2 construct: expressed in transfected cells; host or cells: HEK293, transient transfection (Lipofectamine 2000)
T2 sequence (P41595 whole entry): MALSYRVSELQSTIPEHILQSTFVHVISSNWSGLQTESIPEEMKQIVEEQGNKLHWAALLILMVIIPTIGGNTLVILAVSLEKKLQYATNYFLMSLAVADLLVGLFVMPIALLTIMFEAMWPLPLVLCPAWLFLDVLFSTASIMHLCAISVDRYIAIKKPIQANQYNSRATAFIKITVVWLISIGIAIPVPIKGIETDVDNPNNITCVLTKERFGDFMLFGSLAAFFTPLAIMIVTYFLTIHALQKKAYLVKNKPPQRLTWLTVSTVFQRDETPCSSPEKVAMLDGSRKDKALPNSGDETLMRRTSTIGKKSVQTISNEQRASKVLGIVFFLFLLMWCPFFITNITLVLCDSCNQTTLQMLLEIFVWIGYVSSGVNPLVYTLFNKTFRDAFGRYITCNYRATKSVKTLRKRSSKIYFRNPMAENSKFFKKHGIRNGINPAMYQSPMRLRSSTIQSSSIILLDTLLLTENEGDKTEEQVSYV
Procedure: Identification Test of Stimulating Activities on Human Serotonin 5-HT2B Receptor
The PCR was performed using forward primer depicted as sequence ID No. 4, reverse primer depicted as sequence ID No. 5 and KOD-Plus-Ver.2 (TOYOBO) as template of human brain hippocampus cDNA (Clontech). The PCR product was inserted into a plasmid (pcDNA3.1/V5-His-Topo (registered mark)). The PCR product-inserted plasmid was transformed in E. coli (One Shot TOP10 Chemically Competent). That E. coli was incubated in LB agar medium contained 50 μg/mL ampicillin for a day. A selected colony was incubated in LB medium contained 50 μg/mL ampicillin and PCR product-inserted plasmid was purified with QIAprep Spin Miniprep Kit (QIAGEN).
Mostly confluent HEK293 cells were washed with PBS, followed by exfoliation with 0.05% trypsin-EDTA and the cells were suspended in D-MEM liquid medium (phenol red-free, low glucose, pyruvic acid were contained) containing fetal bovine serum (final concentration: 10%) and GlutaMax (registered mark)I (final concentration: 2 mM). The suspension was scattered at 5×10^4 cells/100 L/well on poly-D-lysine-coated 96-well microplate (BD BioCoat (registered mark)). The scattered cells were cultured in 5% CO2 incubator at 37° C. Human serotonin 5-HT2B receptor expression plasmid was transfected in that cells according to the procedure seeing below.
Human serotonin 5-HT2B receptor expression plasmid and Lipofectamine (registered mark) 2000 (Invitrogen) were diluted to 0.008 g/L and 0.016 g/L each other with OPTI-MEM (registered mark)I Reduced-Serum Medium and incubated at room temperature. After incubation, the human serotonin 5-HT2B receptor exoression plasmid-diluted liquid and Lipofectamine (registered mark) 2000-diluted liquid were mixed at an equal volume and incubated at room temperature to form a complex. The complex was dispensed at 50 μL/well on the cells prepared above. The cells were incubated in 5% CO2 incubator at 37° C. for 2 days. After incubation, the cells were used as human serotonin 5-HT2B receptor forced expression cells for measurement of intracellular calcium concentration.
3) Determination of Stimulating Activities of Human Serotonin 5-HT2B Receptor
The stimulating activities of human serotonin 5-HT2B receptor was determined by measuring of intracellular calcium concentration. The 30 mM dimethyl sulfoxide (DMSO) solution contained test compounds or serotonin hydrochloride (Sigma) as positive control, was diluted with assay buffer ((HBSS), 20 mM HEPES, 1.3 mM calcium chloride, 0.5 mM magnesium chloride and 0.4 mM magnesium sulfate were contained, pH7.4) to appropriate concentration.
The forced expression cells were washed with assay buffer, and 100 μL/well of fluorescent calcium indicator (Fluo-4 NW Calcium Assay Kit) was added and incubated in 5% CO2 incubator at 37° C. After incubation, 50 μL/well of each test compound was added, and the concentration of intracellular calcium was measured as fluorescent signal with FlexStation (registered mark) II (Molecular Devices). The data was analyzed by nonlinear regression and sigmoidal dose-response curve fitting using GraphPad PRISM 4.0, and values of EC50 (concentration of the compound producing half the maximal effect of the compound) were calculated. The data was presented as mean value (n=2).

[3] = [35S]GTPγS binding, membrane homogenates of HEK293 cells stably expressing human D2 receptor, mean, n=2, read-out: EC50

| Structure (SMILES) | EC50 [1, 3] [nM] | EC50 [2] [nM] | EC50 [1] [nM] |
| --- | --- | --- | --- |
| CN(C)CCNC(=O)N(CCc1ccccc1)C(=O)[C@@H]1C[C@@H]2Cc3c(sc(N)c3C#N)C[C@H]2N(C)C1 (relative stereo) [1-30, 1-{[(4aR*,6R*,8aR*)-2-amino-3-cyano-8-methyl-4H,4aH,5H,6H,7H,8H,8aH,9H-thieno[3,2-g]quinolin-6-yl]carbonyl}-3-[2-(dimethylamino)ethyl]-1-(2-phenylethyl)urea] | 4 | > 10000 | – |
| CN(C)CCNC(=O)N(CC(C)(C)C)C(=O)[C@@H]1C[C@@H]2Cc3c(sc(N)c3C#N)C[C@H]2N(C)C1 (relative stereo) [1-56, 1-{[(4aR*,6R*,8aR*)-2-amino-3-cyano-8-methyl-4H,4aH,5H,6H,7H,8H,8aH,9H-thieno[3,2-g]quinolin-6-yl]carbonyl}-3-[2-(dimethylamino)ethyl]-1-(2,2-di-methylpropyl)urea] | 9 | – | – |
| CCCN(C(=O)NCC(C)(C)N(C)C)C(=O)[C@@H]1C[C@@H]2Cc3c(sc(N)c3C#N)C[C@H]2N(C)C1 (relative stereo) [1-82, 1-{[(4aR*,6R*,8aR*)-2-amino-3-cyano-8-methyl-4H,4aH,5H,6H,7H,8H,8aH,9H-thieno[3,2-g]quinolin-6-yl]carbonyl}-3-[2-(dimethylamino)-2-methylpropyl]-1-propylurea] | 13 | > 10000 | – |
| CCN(C(=O)NCC(CC)(CC)N(C)C)C(=O)[C@@H]1C[C@@H]2Cc3c(sc(N)c3C#N)C[C@H]2N(C)C1 (relative stereo) [1-84, 1-{[(4aR*,6R*,8aR*)-2-amino-3-cyano-8-methyl-4H,4aH,5H,6H,7H,8H,8aH,9H-thieno[3,2-g]quinolin-6-yl]carbonyl}-3-[2-(dimethylamino)-2-ethylbutyl]-1-ethylurea] | – | > 10000 | – |
| CN(C)CCNC(=O)N(CC1CC1)C(=O)[C@@H]1C[C@@H]2Cc3c(sc(N)c3C#N)C[C@H]2N(C)C1 (single isomer, unassigned) [1-36] | 10 | – | – |
| CCCN(C(=O)NCCNC)C(=O)[C@@H]1C[C@@H]2Cc3c(sc(N)c3C#N)C[C@H]2N(C)C1 [1-2] | 12 | > 10000 | – |
| CCNC(=O)N(CCN1CCCC1)C(=O)[C@@H]1C[C@@H]2Cc3c(sc(N)c3C#N)C[C@H]2N(C)C1 [1-6, 1-{[(4aR,6R,8aR)-2-amino-3-cyano-8-methyl-4H,4aH,5H,6H,7H,8H,8aH,9H-thieno[3,2-g]quinolin-6-yl]carbonyl}-3-ethyl-1-[2-(pyrrolidin-1-yl)ethyl]urea] | 11 | > 10000 | – |
| CCCN1C[C@H](C(=O)N(CCCN(C)C)C(=O)NCC)C[C@@H]2Cc3c(sc(N)c3C#N)C[C@H]21 [1-13] | 7 | – | – |
| CCN(C(=O)NCCCOC)C(=O)[C@@H]1C[C@@H]2Cc3c(sc(N)c3C#N)C[C@H]2N(C)C1 [1-21] | 21 | – | – |
| CCN(C(=O)NC)C(=O)[C@@H]1C[C@@H]2Cc3c(sc(N)c3C#N)C[C@H]2N(C)C1 [1-23] | 8 | > 10000 | – |
| CCN(C(=O)NCc1ccccn1)C(=O)[C@@H]1C[C@@H]2Cc3c(sc(N)c3C#N)C[C@H]2N(C)C1 [1-25] | – | – | 15 |
| CN(C)CCNC(=O)N(Cc1cccs1)C(=O)[C@@H]1C[C@@H]2Cc3c(sc(N)c3C#N)C[C@H]2N(C)C1 [1-37] | 6 | – | – |
| C=CCN(C(=O)NCCN(C)C)C(=O)[C@@H]1C[C@@H]2Cc3c(sc(N)c3C#N)C[C@H]2N(C)C1 [1-39] | 17 | – | – |
| CCN(C(=O)NCCc1ccccc1CCN(C)C)C(=O)[C@@H]1C[C@@H]2Cc3c(sc(N)c3C#N)C[C@H]2N(C)C1 [1-44] | 13 | – | – |
| CN(C)CCNC(=O)N(CCCC(F)(F)F)C(=O)[C@@H]1C[C@@H]2Cc3c(sc(N)c3C#N)C[C@H]2N(C)C1 [1-61] | 11 | – | – |
| CCCCN(C(=O)NCCN1CCN(C)CC1)C(=O)[C@@H]1C[C@@H]2Cc3c(sc(N)c3C#N)C[C@H]2N(C)C1 [1-66] | 14 | – | – |
| COCCN(C(=O)NCCN1CCCCC1)C(=O)[C@@H]1C[C@@H]2Cc3c(sc(N)c3C#N)C[C@H]2N(C)C1 [1-68] | 12 | – | – |
| CCCN(C(=O)NCC(C)(C)CN(C)C)C(=O)[C@@H]1C[C@@H]2Cc3c(sc(N)c3C#N)C[C@H]2N(C)C1 [1-83] | 6 | > 10000 | – |
| CCN(C(=O)NCCN(C)c1ccccc1)C(=O)[C@@H]1C[C@@H]2Cc3c(sc(N)c3C#N)C[C@H]2N(C)C1 [1-86] | 13 | – | – |
| CCCCN(C(=O)NCCN(C)CCO)C(=O)[C@@H]1C[C@@H]2Cc3c(sc(N)c3C#N)C[C@H]2N(C)C1 [1-87] | 22 | – | – |
| CCCCN(C(=O)NCCN(CC)CC)C(=O)[C@H]1CN[C@@H]2Cc3sc(N)c(C#N)c3C[C@H]2C1 [1-88] | 24 | – | – |
| CCCN(C(=O)NC1CN(C)C1)C(=O)[C@@H]1C[C@@H]2Cc3c(sc(N)c3C#N)C[C@H]2N(C)C1 [1-99] | 8 | > 10000 | – |
| CN(C)CC(C)(C)CNC(=O)N(CC1CC1)C(=O)[C@@H]1C[C@@H]2Cc3c(sc(N)c3C#N)C[C@H]2N(C)C1 [1-104, 1-{[(4aR,6R,8aR)-2-amino-3-cyano-8-methyl-4H,4aH,5H,6H,7H,8H,8aH,9H-thieno[3,2-g]quinolin-6-yl]carbonyl}-1-(cyclopropylmethyl)-3-[3-(dimethylamino)-2,2-dimethyl-propyl]urea] | 4 | > 10000 | – |
| CCCN1C[C@H](CSC)C[C@@H]2c3cccc4[nH]cc(c34)C[C@H]21 [Pergolide, pergolide, reference compound] | – | 287 | – |
